# Biological target: Recombinant human ATX (Homo sapiens (Human), UniProt Q13822)
# Experiment: ATX inhibition assay (choline release, Amplex Red fluorescence)
# Assay type: biochemical
# Conditions: ATX 10 nM, LPC 18:1 10 μM, 37° C., 20 min pre-incubation; mean of n≧2
# In short: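 Activity was taken from the slope of resorufin fluorescence (530/590 nm, read every 2 min for 40 min at 37 °C) produced by choline liberated from 10 μM oleoyl LPC.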
row,Compound,IC50 [µM]
1,"Cc1nnn(Cc2cc(Cl)ccc2/C=C/C(=O)N2CC[C@H](NC(=O)C(F)(F)F)C2)n1 [Example 49.18, (S,E)-N-(1-(3-(4-Chloro-2-((5-methyl-2H-tetrazol-2-yl)methyl)phenyl)acryloyl)pyrrolidin-3-yl)-2,2,2-trifluoroacetamide]",0.13
2,"CNC(=O)COC1CCN(C(=O)/C=C/c2ccc(Cl)cc2Cn2nnc(C)n2)CC1 [Example 49.19, (E)-2-((1-(3-(4-Chloro-2-((5-methyl-2H-tetrazol-2-yl)methyl)phenyl)acryloyl)piperidin-4-yl)oxy)-N-methylacetamide]",0.176
3,"Cc1nnn(Cc2cc(Cl)ccc2/C=C/C(=O)N2CCN(C(=O)c3ccco3)CC2)n1 [Example 49.20, (E)-3-(4-Chloro-2-((5-methyl-2H-tetrazol-2-yl)methyl)phenyl)-1-(4-(furan-2-carbonyl)piperazin-1-yl)prop-2-en-1-one]",0.11
4,"Cc1nnn(Cc2cc(Cl)ccc2/C=C/C(=O)N2CCN(c3ccn(C)n3)C[C@H]2C)n1 [Example 49.21, (R,E)-3-(4-Chloro-2-((5-methyl-2H-tetrazol-2-yl)methyl)phenyl)-1-(2-methyl-4-(1-methyl-1H-pyrazol-3-yl)piperazin-1-yl)prop-2-en-1-one]",0.016
5,"CCNC(=O)COC1CCCN(C(=O)/C=C/c2ccc(Cl)cc2Cn2nnc(C)n2)C1 (stereo not shown) [Example 49.22, (E)-2-((1-(3-(4-Chloro-2-((5-methyl-2H-tetrazol-2-yl)methyl)phenyl)acryloyl)piperidin-3-yl)oxy)-N-ethylacetamide]",0.11
6,"COC(=O)C1COCCN1C(=O)/C=C/c1ccc(Cl)cc1Cn1nnc(C)n1 (stereo not shown) [Example 49.23, (E)-Methyl 4-(3-(4-Chloro-2-((5-methyl-2H-tetrazol-2-yl)methyl)phenyl)acryloyl)morpholine-3-carboxylate]",0.078
7,"COCC1CCN(C(=O)/C=C/c2ccc(Cl)cc2Cn2nnc(C)n2)CC1 [Example 49.24, (E)-3-(4-Chloro-2-((5-methyl-2H-tetrazol-2-yl)methyl)phenyl)-1-(4-(methoxymethyl)piperidin-1-yl)prop-2-en-1-one]",0.045
8,"Cc1nnn(Cc2cc(Cl)ccc2/C=C/C(=O)N2CCCN(c3ncccn3)CC2)n1 [Example 49.25, (E)-3-(4-Chloro-2-((5-methyl-2H-tetrazol-2-yl)methyl)phenyl)-1-(4-(pyrimidin-2-yl)-1,4-diazepan-1-yl)prop-2-en-1-one]",0.01
9,"CC(=O)N1CCCN(C(=O)/C=C/c2ccc(Cl)cc2Cn2nnc(C)n2)CC1 [Example 49.26, (E)-1-(4-Acetyl-1,4-diazepan-1-yl)-3-(4-chloro-2-((5-methyl-2H-tetrazol-2-yl)methyl)phenyl)prop-2-en-1-one]",0.16
10,"COC(=O)C1SCCN1C(=O)/C=C/c1ccc(Cl)cc1Cn1nnc(C)n1 (stereo not shown) [Example 49.27, (E)-Methyl 3-(3-(4-chloro-2-((5-methyl-2H-tetrazol-2-yl)methyl)phenyl)acryloyl)thiazolidine-2-carboxylate]",0.11
11,"Cc1nnn(Cc2cc(Cl)ccc2/C=C/C(=O)N2CCN(c3ncccc3C#N)CC2)n1 [Example 49.28, (E)-2-(4-(3-(4-Chloro-2-((5-methyl-2H-tetrazol-2-yl)methyl)phenyl)acryloyl)piperazin-1-yl)nicotinonitrile]",0.01
12,"Cc1nnn(Cc2cc(Cl)ccc2/C=C/C(=O)N2CCN(c3ncccc3C(=O)N3CCCC3)CC2)n1 [Example 49.29, (E)-3-(4-Chloro-2-((5-methyl-2H-tetrazol-2-yl)methyl)phenyl)-1-(4-(3-(pyrrolidine-1-carbonyl)pyridin-2-yl)piperazin-1-yl)prop-2-en-1-one]",0.078
13,"CCCNC(=O)COC1CCN(C(=O)/C=C/c2ccc(Cl)cc2Cn2nnc(C)n2)CC1 [Example 49.30, (E)-2-((1-(3-(4-Chloro-2-((5-methyl-2H-tetrazol-2-yl)methyl)phenyl)acryloyl)piperidin-4-yl)oxy)-N-propylacetamide]",0.052

# — patent publication US9763957B2, “Autotaxin inhibitors” (Novartis AG, priority 2013, dated 2017)
